According to PubChem BioAssay AID248 (DTP/NCI, 2004):
“And” between values parts separate entries of the source, which are not always exact repeats. Equal values may be shown once. Toxic doses and inconclusive results are not listed. No stated cut-off is given here; in the data, active means T/C of 150% or more; inactive means T/C below 125%. Peptide text beside a SMILES is read from it. * marks the point of attachment. Cbz = O=C(OCc1ccccc1)*

System: L1210 leukemia ip in BDF1 mice, survival T/C
Experiment: NCI In Vivo Anticancer Drug Screen. Data for tumor model L1210 Leukemia (intraperitoneal) in B6D2F1 (BDF1) mice
Details: endpoint: mean survival time, higher = longer survival
Procedure, shortened: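 Mice bearing the transplanted tumor received compound or vehicle. Survival of the treated group was divided by that of the vehicle-treated control group to give the ratio.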

[1] = dose: 100.0 mg/kg/injection, schedule: Q01DX009 (ip), vehicle: saline with Tween-80
[2] = dose: 100.0 mg/kg/injection, schedule: Q04DX003 (ip), vehicle: saline with Tween-80
[3] = dose: 200.0 mg/kg/injection, schedule: Q01DX009 (ip), vehicle: saline with Tween-80
[4] = dose: 200.0 mg/kg/injection, schedule: Q04DX003 (ip), vehicle: saline with Tween-80
[5] = dose: 400.0 mg/kg/injection, schedule: Q01DX009 (ip), vehicle: saline with Tween-80
[6] = dose: 400.0 mg/kg/injection, schedule: Q04DX003 (ip), vehicle: saline with Tween-80
[7] = dose: 50.0 mg/kg/injection, schedule: Q01DX001 (ip), vehicle: carboxymethylcellulose (CMC)
[8] = dose: 100.0 mg/kg/injection, schedule: Q01DX001 (ip), vehicle: carboxymethylcellulose (CMC)
[9] = dose: 200.0 mg/kg/injection, schedule: Q01DX001 (ip), vehicle: carboxymethylcellulose (CMC)
[10] = dose: 400.0 mg/kg/injection, schedule: Q01DX001 (ip), vehicle: carboxymethylcellulose (CMC)
[11] = dose: 100.0 mg/kg/injection, schedule: Q01DX009 (ip), vehicle: carboxymethylcellulose (CMC)

Measured: T/C

Cc1cc2c(cc1C)C1(c3ccccc3)OC1(c1ccccc1)C2=O (stereo not drawn)
inactive: dose: 100.0 mg/kg/injection, schedule: Q01DX001 (ip), vehicle: saline with Tween-80 95 % of control | dose: 200.0 mg/kg/injection, schedule: Q01DX001 (ip), vehicle: saline with Tween-80 88 % of control | dose: 400.0 mg/kg/injection, schedule: Q01DX001 (ip), vehicle: saline with Tween-80 92 % of control

COC(=O)C(CC(C)C)NC(=O)C(CC(N)=O)NC(=O)OCc1ccccc1 (stereo not drawn) (Cbz-Asn-Leu-OMe; configuration not given here)
inactive: dose: 100.0 mg/kg/injection, schedule: Q01DX001 (ip), vehicle: saline 96 % of control | dose: 200.0 mg/kg/injection, schedule: Q01DX001 (ip), vehicle: saline 93 % of control | dose: 400.0 mg/kg/injection, schedule: Q01DX001 (ip), vehicle: saline 98 % of control

O=C1c2ccccc2CC1(Br)C(Br)c1ccccc1 (stereo not drawn)
inactive: dose: 100.0 mg/kg/injection, schedule: Q01DX009 (ip), vehicle: saline sonified 99 % of control | [1] 96 % of control | dose: 100.0 mg/kg/injection, schedule: Q04DX003 (ip), vehicle: Klucel (hydroxypropylcellulose) (HPC) 104 % of control | [2] 107 % of control | dose: 200.0 mg/kg/injection, schedule: Q01DX009 (ip), vehicle: saline sonified 95 % of control | [3] 91 % of control | dose: 200.0 mg/kg/injection, schedule: Q04DX003 (ip), vehicle: Klucel (hydroxypropylcellulose) (HPC) 101 % of control | [4] 103 % of control | dose: 400.0 mg/kg/injection, schedule: Q01DX009 (ip), vehicle: saline sonified 94 % of control | [5] 89 % of control | dose: 400.0 mg/kg/injection, schedule: Q04DX003 (ip), vehicle: Klucel (hydroxypropylcellulose) (HPC) 98 % of control | [6] 104 % of control

CC(C)[CH2][Sn](=[O])[CH2]C(C)C
inactive: dose: 6.25 mg/kg/injection, schedule: Q04DX002 (ip), vehicle: saline with Tween-80 108 % of control | dose: 12.5 mg/kg/injection, schedule: Q04DX002 (ip), vehicle: saline with Tween-80 96 % of control

c1ccc(P(CN(CCN(CP(c2ccccc2)c2ccccc2)CP(c2ccccc2)c2ccccc2)CP(c2ccccc2)c2ccccc2)c2ccccc2)cc1
inactive: dose: 100.0 mg/kg/injection, schedule: Q04DX002 (sc), vehicle: olive oil, sesame oil, peanut oil 100 % of control | dose: 200.0 mg/kg/injection, schedule: Q04DX002 (sc), vehicle: olive oil, sesame oil, peanut oil 110 % of control | dose: 400.0 mg/kg/injection, schedule: Q04DX002 (sc), vehicle: olive oil, sesame oil, peanut oil 107 % of control

C=CCc1c(F)c(F)c(F)c(F)c1F
inactive: [2] 97 % of control | [4] 95 % of control | [6] 98 % of control

NCC(O)c1cccc(O)c1 (stereo not drawn)
inactive: [7] 105 % of control | [8] 94 % of control | [9] 100 % of control | [10] 100 % of control

Cc1ccc2nc3c4ccccc4scc-3c2c1
inactive: dose: 100.0 mg/kg/injection, schedule: Q04DX003 (ip), vehicle: acetone 93 % of control

O=c1oc2ccccc2c(O)c1Cc1c(O)c2ccccc2oc1=O
inactive: dose: 12.5 mg/kg/injection, schedule: Q01DX009 (ip), vehicle: Klucel (hydroxypropylcellulose) (HPC) 99 % of control | dose: 25.0 mg/kg/injection, schedule: Q01DX009 (ip), vehicle: Klucel (hydroxypropylcellulose) (HPC) 86 % of control | dose: 50.0 mg/kg/injection, schedule: Q01DX009 (ip), vehicle: Klucel (hydroxypropylcellulose) (HPC) 86 % of control and 92 % of control

NC(=O)COc1c(F)c(F)c(F)c(F)c1F
inactive: [1] 101 % of control | [3] 101 % of control | [5] 97 % of control

CCOC(=O)CCC(N)C(=O)O (stereo not drawn)
inactive: dose: 100.0 mg/kg/injection, schedule: Q04DX002 (ip), vehicle: saline 110 % of control | dose: 200.0 mg/kg/injection, schedule: Q04DX002 (ip), vehicle: saline 106 % of control | dose: 400.0 mg/kg/injection, schedule: Q04DX002 (ip), vehicle: saline 102 % of control

C1CCN(NC2=NCCO2)CC1
inactive: dose: 100.0 mg/kg/injection, schedule: Q01DX009 (ip), vehicle: saline 95 % of control

CCCCCCCCCCCCCCC(=O)O
inactive: dose: 100.0 mg/kg/injection, schedule: Q01DX001 (ip), vehicle: Klucel (hydroxypropylcellulose) (HPC) 108 % of control | dose: 200.0 mg/kg/injection, schedule: Q01DX001 (ip), vehicle: Klucel (hydroxypropylcellulose) (HPC) 93 % of control | dose: 400.0 mg/kg/injection, schedule: Q01DX001 (ip), vehicle: Klucel (hydroxypropylcellulose) (HPC) 93 % of control

CC(C)=NNC(=O)c1ccccn1
inactive: [7] 101 % of control | dose: 50.0 mg/kg/injection, schedule: Q01DX009 (ip), vehicle: carboxymethylcellulose (CMC) 104 % of control | dose: 50.0 mg/kg/injection, schedule: Q04DX003 (ip), vehicle: carboxymethylcellulose (CMC) 100 % of control | [8] 104 % of control | [11] 104 % of control and 106 % of control | dose: 100.0 mg/kg/injection, schedule: Q04DX003 (ip), vehicle: carboxymethylcellulose (CMC) 115 % of control | [9] 113 % of control

CC(C)c1nc(CO)c(CO)n1Cc1ccccc1
inactive: [8] 106 % of control | [11] 93 % of control and 109 % of control | dose: 100.0 mg/kg/injection, schedule: Q04DX002 (ip), vehicle: Klucel (hydroxypropylcellulose) (HPC) 112 % of control | dose: 100.0 mg/kg/injection, schedule: Q04DX002 (ip), vehicle: carboxymethylcellulose (CMC) 93 % of control and 111 % of control | [9] 108 % of control | dose: 200.0 mg/kg/injection, schedule: Q01DX009 (ip), vehicle: carboxymethylcellulose (CMC) 106 % of control and 91 % of control | dose: 200.0 mg/kg/injection, schedule: Q04DX002 (ip), vehicle: Klucel (hydroxypropylcellulose) (HPC) 102 % of control | dose: 200.0 mg/kg/injection, schedule: Q04DX002 (ip), vehicle: carboxymethylcellulose (CMC) 105 % of control and 88 % of control | [10] 108 % of control | dose: 400.0 mg/kg/injection, schedule: Q01DX009 (ip), vehicle: carboxymethylcellulose (CMC) 106 % of control and 91 % of control | dose: 400.0 mg/kg/injection, schedule: Q04DX002 (ip), vehicle: Klucel (hydroxypropylcellulose) (HPC) 102 % of control | dose: 400.0 mg/kg/injection, schedule: Q04DX002 (ip), vehicle: carboxymethylcellulose (CMC) 97 % of control and 90 % of control
